Assay results published in US20210040073A1, “AZABICYCLO-SUBSTITUTED TRIAZOLE DERIVATIVE, PREPARATION METHOD THEREOF, AND APPLICATION OF SAME IN MEDICINE” (Jiangsu Hengrui Medicine Co., Ltd., priority 2016, published 2021).

What was measured:
[1] = biological target: T1, human V1bR (Homo sapiens, UniProt P47901); assay: Inhibition activity on human V1bR (Fluo-4 calcium assay, HEK293/human V1bR pool cells, vasopressin 3 nM); assay type: cell-based; conditions: calcium signal
T1 construct: expressed in transfected cells; host or cells: HEK293 (G418-selected pool)
T1 sequence (P47901 1-424): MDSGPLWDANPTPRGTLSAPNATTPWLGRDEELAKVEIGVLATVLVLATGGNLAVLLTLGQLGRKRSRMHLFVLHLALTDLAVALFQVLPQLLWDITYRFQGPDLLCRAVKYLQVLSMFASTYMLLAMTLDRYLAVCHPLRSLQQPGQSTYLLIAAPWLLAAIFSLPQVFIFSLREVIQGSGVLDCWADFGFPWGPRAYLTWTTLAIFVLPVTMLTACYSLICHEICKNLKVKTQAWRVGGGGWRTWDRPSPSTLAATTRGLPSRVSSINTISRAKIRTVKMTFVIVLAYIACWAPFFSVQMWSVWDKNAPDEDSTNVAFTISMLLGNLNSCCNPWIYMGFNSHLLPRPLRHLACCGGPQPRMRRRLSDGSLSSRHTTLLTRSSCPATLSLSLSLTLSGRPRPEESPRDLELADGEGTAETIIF
Procedure: The inhibition effect of the compounds of the present invention on the activity of human V1bR protein expressed in HEK293/human V1bR cells was determined by the following experimental method:
The pcDNA3.1-V1bR plasmid was transferred into HEK293 cells with the Lipofectamine® 3000 transfection reagent; G418 was added on the next day, and the HEK293/human V1bR pool cell lines were obtained.
HEK293/human V1bR pool cells were inoculated in a 96-well plate with an inoculation density of 25,000 cells/well one day in advance. On the next day, a loading buffer containing Fluo-4 dye was formulated using the reagents in the Fluo-4 NW calcium assay kit, and the culture medium was then removed; 100 μl of the loading buffer containing Fluo-4 dye were added to each well, and the plate was incubated at 37° C. for 30 minutes. After that, the plate was moved to room temperature and equilibrated for 10 minutes. The compounds were formulated into concentration gradients of 10^6, 10^5, 10^4, 10^3, 10^2 and 10^1 nM. 1 μl of the compounds in each concentration was added to each well, and the plate was incubated at room temperature for 10 minutes. […] IC50 values of the compounds were calculated by Graphpad prism software using fluorescence signals corresponding to different concentrations.

[2] = Pharmacokinetics assay in rats after intragastrical administration; conditions: 2 mg/kg; for AUC / CL/F / MRT / Vd/F: plasma
Procedure: Rats were used as test animals. […] The pharmacokinetic behavior of the compounds of the present invention was studied and evaluated in rats.
After an overnight fast, SD rats were administered intragastrically the test compounds at an administration dosage of 2.0 mg/kg and an administration volume of 10.0 mL/kg.
0.2 mL of blood was taken from the orbital sinus before administration and at 0.5, 1.0, 2.0, 4.0, 6.0, 8.0, 11.0 and 24.0 hours after administration. The samples were stored in heparinized tubes, and centrifuged for 10 minutes at 4° C. at 3,500 rpm to separate the blood plasma. The plasma samples were stored at −20° C. The rats were fed 2 hours after administration.
The content of the test compounds in the plasma of rats after intragastrical administration of the test compounds at different concentrations was determined: 25 μL of rat plasma at each time after administration was taken, added with 50 μL of the internal standard solution of camptothecin (100 ng/mL) and 200 μL of acetonitrile, vortex-mixed for 5 minutes, and centrifuged for 10 minutes (4000 rpm). 1.0 μL of the supernatant was taken from the plasma samples for LC/MS/MS analysis.

[3] = both, Sprague-Dawley, rat, in vivo, po

Structure (SMILES)	IC50 [1] [µM]	Plasma concentration Cmax ([2]; SD rats, intragastrical) [ng/mL]	half-life [2, 3] [h]	AUC ([2]; both, Sprague-Dawley, rat, po) [ng·h/mL]	CL/F ([2]; both, Sprague-Dawley, rat, po) [mL/min/kg]	MRT ([2]; both, Sprague-Dawley, rat, po) [h]	Vd/F ([2]; both, Sprague-Dawley, rat, po) [L/kg]	Half-life T½ ([2]; SD rats, intragastrical) [h]	Cmax [2, 3] [ng/mL]
COc1ccc(-n2c(COCCF)nnc2N2C[C@@H]3C[C@]3(c3ccc(F)cc3Cl)C2)cn1 [Example 1, (1S,5R)-1-(2-Chloro-4-fluorophenyl)-3-(5-((2-fluoroethoxy)methyl)-4-(6-methoxypyridin-3-yl)-4H-1,2,4-triazol-3-yl)-3-azabicyclo[3.1.0]hexane]	24.5	–	–	–	–	–	–	–	–
COc1ccc(-n2c(N3C[C@@H]4C[C@]4(c4ccc(F)cc4Cl)C3)nnc2C(F)(F)F)cn1 [Example 12, (1S,5R)-1-(2-Chloro-4-fluorophenyl)-3-(4-(6-methoxypyridin-3-yl)-5-(trifluoromethyl)-4H-1,2,4-triazol-3-yl)-3-azabicyclo[3.1.0]hexane]	11.7	–	–	–	–	–	–	–	–
CCOCc1nnc(N2C[C@@H]3C[C@]3(c3ccc(F)cc3Cl)C2)n1-c1ccc(OC)nc1 [Example 6, (1S,5R)-1-(2-Chloro-4-fluorophenyl)-3-(5-(ethoxymethyl)-4-(6-methoxypyridin-3-yl)-4H-1,2,4-triazol-3-yl)-3-azabicyclo[3.1.0]hexane]	27.9	135 ± 80.0	3.47 ± 1.72	1060 ± 982	68.9 ± 58.8	6.7 ± 0.73	18 ± 17.4	–	–
COCc1nnc(N2C[C@@H]3C[C@]3(c3ccc(F)cc3Cl)C2)n1-c1ccc(OC)nc1 [Example 9, (1S,5R)-1-(2-Chloro-4-fluorophenyl)-3-(5-(methoxymethyl)-4-(6-methoxypyridin-3-yl)-4H-1,2,4-triazol-3-yl)-3-azabicyclo[3.1.0]hexane]	37.6	–	–	2040 ± 1020	20.2 ± 10.3	6.23 ± 4.94	6 ± 4.44	3.98 ± 3.55	350 ± 142
COCc1nnc(N2C[C@@H]3C[C@]3(c3cccc(F)c3Cl)C2)n1-c1ccc(OC)nc1 [Example 4, (1S,5R)-1-(2-Chloro-3-fluorophenyl)-3-(5-(methoxymethyl)-4-(6-methoxypyridin-3-yl)-4H-1,2,4-triazol-3-yl)-3-azabicyclo[3.1.0]hexane]	59.4	–	–	–	–	–	–	–	–
